According to PubChem BioAssay (NCI):
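Each compound was tested at five concentrations against cells in 96-well plates for 48 hours. Definition used: TGI = concentration required for complete inhibition of growth.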

Experiments:
Assay in all cases: NCI anticancer screen, dose series, 48 h
A549 NSCLC = tested on: A549 NSCLC
SF-268 CNS = tested on: SF-268 CNS
OVCAR-4 ovarian = tested on: OVCAR-4 ovarian
HOP-62 NSCLC = tested on: HOP-62 NSCLC
K-562 leukemia = tested on: K-562 leukemia
HT29 colon = tested on: HT29 colon
NCI-H23 lung = tested on: NCI-H23 lung
SF-539 CNS = tested on: SF-539 CNS
T-47D breast = tested on: T-47D breast
SN12C renal = tested on: SN12C renal
786-0 renal = tested on: 786-0 renal
EKVX NSCLC = tested on: EKVX NSCLC
HS 578T breast = tested on: HS 578T breast
MALME-3M melanoma = tested on: MALME-3M melanoma
CCRF-CEM leukemia = tested on: CCRF-CEM leukemia
IGROV1 ovarian = tested on: IGROV1 ovarian
HCT-15 colon = tested on: HCT-15 colon
RXF 393 renal = tested on: RXF 393 renal
SK-MEL-5 melanoma = tested on: SK-MEL-5 melanoma
OVCAR-3 ovarian = tested on: OVCAR-3 ovarian
SW-620 colon = tested on: SW-620 colon
SK-OV-3 ovarian = tested on: SK-OV-3 ovarian
MDA-MB-435 = tested on: MDA-MB-435
BT-549 breast = tested on: BT-549 breast
U251 CNS = tested on: U251 CNS
SNB-19 CNS = tested on: SNB-19 CNS
SK-MEL-28 melanoma = tested on: SK-MEL-28 melanoma
NCI-H226 lung = tested on: NCI-H226 lung
OVCAR-8 ovarian = tested on: OVCAR-8 ovarian
SF-295 CNS = tested on: SF-295 CNS
HOP-92 NSCLC = tested on: HOP-92 NSCLC
TK-10 renal = tested on: TK-10 renal
ACHN renal = tested on: ACHN renal
SNB-75 CNS = tested on: SNB-75 CNS
OVCAR-5 ovarian = tested on: OVCAR-5 ovarian
MOLT-4 leukemia = tested on: MOLT-4 leukemia
PC-3 prostate = tested on: PC-3 prostate
MDA-MB-231 breast = tested on: MDA-MB-231 breast
KM12 colon = tested on: KM12 colon
HL-60(TB) leukemia = tested on: HL-60(TB) leukemia
DU-145 prostate = tested on: DU-145 prostate
NCI-H522 lung = tested on: NCI-H522 lung
NCI-H460 lung = tested on: NCI-H460 lung
RPMI-8226 leukemia = tested on: RPMI-8226 leukemia
HCC-2998 colon = tested on: HCC-2998 colon
SR leukemia = tested on: SR leukemia
HCT-116 colon = tested on: HCT-116 colon
MDA-N = tested on: MDA-N
COLO 205 colon = tested on: COLO 205 colon
UACC-257 melanoma = tested on: UACC-257 melanoma
MCF7 breast = tested on: MCF7 breast
M14 melanoma = tested on: M14 melanoma
CAKI-1 renal = tested on: CAKI-1 renal
UO-31 renal = tested on: UO-31 renal
UACC-62 melanoma = tested on: UACC-62 melanoma
A498 renal = tested on: A498 renal
LOX IMVI melanoma = tested on: LOX IMVI melanoma
SK-MEL-2 melanoma = tested on: SK-MEL-2 melanoma
NCI/ADR-RES ovarian = tested on: NCI/ADR-RES ovarian

Measured: TGI

COc1ccc2c(c1OC)C(=O)N/C2=C\c1c(CCN(C)C)cc2c(c1OC)OCO2
84.1 µM: RXF 393 renal
> 100 µM: A549 NSCLC | SF-268 CNS | OVCAR-4 ovarian | HOP-62 NSCLC | K-562 leukemia | HT29 colon | NCI-H23 lung | SF-539 CNS | T-47D breast | SN12C renal | 786-0 renal | EKVX NSCLC | HS 578T breast | MALME-3M melanoma | CCRF-CEM leukemia | IGROV1 ovarian | HCT-15 colon | SK-MEL-5 melanoma | OVCAR-3 ovarian | SW-620 colon | SK-OV-3 ovarian | MDA-MB-435 | BT-549 breast | U251 CNS | SNB-19 CNS | SK-MEL-28 melanoma | NCI-H226 lung | OVCAR-8 ovarian | SF-295 CNS | HOP-92 NSCLC | TK-10 renal | ACHN renal | SNB-75 CNS | OVCAR-5 ovarian | MOLT-4 leukemia | PC-3 prostate | MDA-MB-231 breast | KM12 colon | HL-60(TB) leukemia | DU-145 prostate | NCI-H522 lung | NCI-H460 lung | RPMI-8226 leukemia | HCC-2998 colon | SR leukemia | HCT-116 colon | MDA-N | COLO 205 colon | UACC-257 melanoma | MCF7 breast | M14 melanoma

CC1=N[C@@](C)(C2CC3C=CC2C3=O)COC1=O (some centres not stated)
> 100 µM: A549 NSCLC | SF-268 CNS | OVCAR-4 ovarian | CAKI-1 renal | HOP-62 NSCLC | K-562 leukemia | HT29 colon | NCI-H23 lung | SF-539 CNS | T-47D breast | SN12C renal | 786-0 renal | EKVX NSCLC | HS 578T breast | MALME-3M melanoma | UO-31 renal | CCRF-CEM leukemia | IGROV1 ovarian | RXF 393 renal | SK-MEL-5 melanoma | OVCAR-3 ovarian | SW-620 colon | SK-OV-3 ovarian | MDA-MB-435 | BT-549 breast | U251 CNS | SNB-19 CNS | SK-MEL-28 melanoma | NCI-H226 lung | OVCAR-8 ovarian | SF-295 CNS | HOP-92 NSCLC | TK-10 renal | ACHN renal | SNB-75 CNS | OVCAR-5 ovarian | UACC-62 melanoma | MOLT-4 leukemia | PC-3 prostate | MDA-MB-231 breast | KM12 colon | HL-60(TB) leukemia | DU-145 prostate | NCI-H522 lung | NCI-H460 lung | HCC-2998 colon | SR leukemia | HCT-116 colon | MDA-N | COLO 205 colon | A498 renal | UACC-257 melanoma | MCF7 breast | M14 melanoma

Cc1ccc(C(=O)Oc2ccc(/C=C3\CCC/C(=C\c4ccc(OC(=O)c5ccc(C)cc5)cc4)C3=O)cc2)cc1
> 100 µM: A549 NSCLC | SF-268 CNS | OVCAR-4 ovarian | CAKI-1 renal | HOP-62 NSCLC | HT29 colon | NCI-H23 lung | SF-539 CNS | T-47D breast | SN12C renal | 786-0 renal | EKVX NSCLC | HS 578T breast | UO-31 renal | CCRF-CEM leukemia | IGROV1 ovarian | HCT-15 colon | SK-MEL-5 melanoma | OVCAR-3 ovarian | SW-620 colon | MDA-MB-435 | BT-549 breast | U251 CNS | SNB-19 CNS | LOX IMVI melanoma | SK-MEL-28 melanoma | OVCAR-8 ovarian | SF-295 CNS | HOP-92 NSCLC | SK-MEL-2 melanoma | TK-10 renal | ACHN renal | SNB-75 CNS | OVCAR-5 ovarian | UACC-62 melanoma | MOLT-4 leukemia | PC-3 prostate | MDA-MB-231 breast | KM12 colon | HL-60(TB) leukemia | DU-145 prostate | NCI-H522 lung | NCI-H460 lung | RPMI-8226 leukemia | NCI/ADR-RES ovarian | HCC-2998 colon | SR leukemia | HCT-116 colon | MDA-N | COLO 205 colon | UACC-257 melanoma | MCF7 breast | M14 melanoma

CCOC(=O)N/N=C(\CC)OCC
> 100 µM: A549 NSCLC | SF-268 CNS | CAKI-1 renal | HOP-62 NSCLC | K-562 leukemia | SF-539 CNS | T-47D breast | SN12C renal | 786-0 renal | EKVX NSCLC | HS 578T breast | MALME-3M melanoma | UO-31 renal | CCRF-CEM leukemia | IGROV1 ovarian | HCT-15 colon | RXF 393 renal | SK-MEL-5 melanoma | OVCAR-3 ovarian | SK-OV-3 ovarian | BT-549 breast | SNB-19 CNS | LOX IMVI melanoma | OVCAR-8 ovarian | SF-295 CNS | SK-MEL-2 melanoma | TK-10 renal | ACHN renal | SNB-75 CNS | OVCAR-5 ovarian | UACC-62 melanoma | MOLT-4 leukemia | PC-3 prostate | MDA-MB-231 breast | KM12 colon | HL-60(TB) leukemia | DU-145 prostate | NCI-H522 lung | NCI-H460 lung | NCI/ADR-RES ovarian | HCC-2998 colon | SR leukemia | HCT-116 colon | MDA-N | COLO 205 colon | UACC-257 melanoma | MCF7 breast | M14 melanoma
